Results taken from patent publication US20080009418A1, “Selective Inhibitors” (Alchemia LTD., priority 2004, published 2008).

Experiments:
[1] = biological target: T1, Human neuropeptide Y (NPY-Y1) (Homo sapiens, UniProt P25929); assay: Radioligand binding, human neuropeptide Y NPY-Y1 membranes, FlashPlate, [125I]-PYY; conditions: compound at 10 μM; [125I]-PYY
T1 construct: purchased Perkin Elmer Biosignal
T1 sequence (P25929 1-384): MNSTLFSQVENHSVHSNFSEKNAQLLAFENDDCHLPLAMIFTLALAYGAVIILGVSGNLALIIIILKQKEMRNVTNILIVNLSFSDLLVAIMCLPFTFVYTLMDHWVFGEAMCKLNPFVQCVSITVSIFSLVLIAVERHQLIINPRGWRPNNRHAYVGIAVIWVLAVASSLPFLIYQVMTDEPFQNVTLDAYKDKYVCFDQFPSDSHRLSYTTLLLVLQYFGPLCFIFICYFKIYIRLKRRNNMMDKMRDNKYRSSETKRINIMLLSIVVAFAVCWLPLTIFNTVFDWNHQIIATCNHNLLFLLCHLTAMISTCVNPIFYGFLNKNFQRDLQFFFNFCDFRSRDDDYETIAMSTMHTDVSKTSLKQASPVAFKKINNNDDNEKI
Procedure: (§1) Cloned receptor membrane preparations from Perkin Elmer Biosignal™ were used in radioligand binding assays.
(§2) A1 Human δ-opioid (DOP), A2 Human κ-Opioid (KOP), A3 Human Melanocortin (MC3), A4 Human Melanocortin (MC4), A5 Human melanocortin (MC5), A6 Human melanin-concentrating hormone (MCH1), A7 Human μ-opioid (MOP), A8 Human neurokinin (NK1), A9 Human neuropeptide Y (NPY-Y1), A10 Human opioid (ORL1) A11 Mouse urotensin (mUR2)
(§3) Screening experiments were performed in either a 50 μl filtration or 25 μl FlashPlate assay format using the following protocol:
(§4) 19.5 μl buffer, 0.5 μl of compound diluted in DMSO, 5 μl of radioligand diluted in binding buffer.
(§5) The day prior to performing the experiment 50 μl DMSO was added to each well of the compound plates to yield compounds at a final concentration of 10 mM. Daughter plates were then created by diluting the compounds further in DMSO to a concentration of 0.5 mM. The mother plates were frozen immediately.
(§6) Immobilize membranes into FlashPlate microplates using PerkinElmer BioSignal's proprietary coating procedure. Dilute radioligand to 5× the final concentration in binding buffer. Add 19.5 μl buffer to each well of the FlashPlate. Add 0.5 μl of DMSO (total value, 5 wells), reference ligand (non-specific value, 3 wells) or compound to the corresponding wells in the FlashPlate microplate. Initiate the reaction by adding 5 μl of radioligand to each well. Apply TopSeal-A onto FlashPlate microplates. Incubate at room temperature for 1 hour in the dark. Count for 30 seconds per well on TopCount Microplate Scintillation and Luminescence Counter (PerkinElmer) using a count delay of 60 seconds.
(§7) Percentage inhibition was calculated using the following formula: [formula]

Mouse urotensin (mUR2) = biological target: T2, Mouse urotensin (mUR2) (Mus musculus, UniProt Q8VIH9); assay: Radioligand binding, mouse urotensin mUR2 membranes, FlashPlate, [125I]-Urotensin II; conditions: compound at 10 μM; [125I]-Urotensin II
T2 construct: purchased Perkin Elmer Biosignal
T2 sequence (Q8VIH9 1-385): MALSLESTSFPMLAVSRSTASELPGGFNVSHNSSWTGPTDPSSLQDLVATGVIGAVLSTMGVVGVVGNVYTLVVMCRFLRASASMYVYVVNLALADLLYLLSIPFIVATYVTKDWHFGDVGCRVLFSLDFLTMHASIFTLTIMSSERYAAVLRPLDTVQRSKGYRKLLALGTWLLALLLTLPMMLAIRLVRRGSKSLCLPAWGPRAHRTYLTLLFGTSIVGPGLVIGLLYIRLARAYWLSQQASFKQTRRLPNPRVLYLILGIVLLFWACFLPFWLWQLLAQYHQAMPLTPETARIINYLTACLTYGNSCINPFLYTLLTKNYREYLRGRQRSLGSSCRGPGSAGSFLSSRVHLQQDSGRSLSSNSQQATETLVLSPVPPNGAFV
Procedure: as §1, §2, §3, §4, §5, §6, §7

Human κ-Opioid (KOP) = biological target: T3, Human κ-Opioid (KOP) (Homo sapiens, UniProt P41145); assay: Radioligand binding, human κ-opioid (KOP) membranes, filtration, [3H]-Diprenorphine; conditions: compound at 10 μM, [3H]-Diprenorphine
T3 construct: purchased Perkin Elmer Biosignal
T3 sequence (P41145 whole entry): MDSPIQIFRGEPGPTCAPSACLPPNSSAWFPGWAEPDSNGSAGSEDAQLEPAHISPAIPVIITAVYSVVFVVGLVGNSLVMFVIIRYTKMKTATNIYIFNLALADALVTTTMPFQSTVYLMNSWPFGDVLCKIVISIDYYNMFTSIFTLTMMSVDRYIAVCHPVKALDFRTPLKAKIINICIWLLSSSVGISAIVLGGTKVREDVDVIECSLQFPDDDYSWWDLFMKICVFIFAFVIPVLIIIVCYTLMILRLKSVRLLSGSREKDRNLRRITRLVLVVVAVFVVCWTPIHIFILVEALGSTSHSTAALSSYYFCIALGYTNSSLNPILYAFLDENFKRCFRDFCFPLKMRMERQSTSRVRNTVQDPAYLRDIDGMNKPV
Procedure: as §1, §2, §3
(§8) 44 μl membranes diluted in buffer, 1 μl of compound diluted in DMSO, 5 μl of radioligand diluted in binding buffer.
as §5
(§9) Thaw membranes on ice then dilute membranes in binding buffer at a concentration of 1 Unit per well. Dilute radio-ligand to 10 times the final concentration in binding buffer. Add 44 μl of diluted membranes to each well of the deep-well plate. Add 1 μl of DMSO (total value, 5 wells), reference ligand (non-specific value, 3 wells) or compound to the corresponding wells in the deep-well plate. Initiate the reaction by adding 5 μl of radioligand to each well and vortex gently. Incubate at room temperature for 1 hour. During incubation, pre-incubate the Multiscreen Harvest plates in 0.3% PEI. Filter over pre-soaked Multiscreen Harvest plates using a Tomtec Harvester. Wash 9 times with 500 μl of cold 50 mM Tris-HCl pH 7.4 at 4° C. and air-dry for 30 minutes at room temperature under a fume hood. Apply a bottom seal to the Multiscreen Harvest plates. Add 25 μl of MicroScint-0 to each well. Apply TopSeal-A to the plate. Count for 30 seconds per well on TopCount Microplate Scintillation and Luminescence Counter (PerkinElmer) using a count delay of 60 seconds.
as §7

Human Melanocortin (MC4) = biological target: T4, Human Melanocortin (MC4) (Homo sapiens, UniProt P32245); assay: Radioligand binding, human melanocortin MC4 membranes, FlashPlate, [125I]-NDP-αMSH; conditions: compound at 10 μM, [125I]-NDP-αMSH
T4 construct: purchased Perkin Elmer Biosignal
T4 sequence (P32245 whole entry): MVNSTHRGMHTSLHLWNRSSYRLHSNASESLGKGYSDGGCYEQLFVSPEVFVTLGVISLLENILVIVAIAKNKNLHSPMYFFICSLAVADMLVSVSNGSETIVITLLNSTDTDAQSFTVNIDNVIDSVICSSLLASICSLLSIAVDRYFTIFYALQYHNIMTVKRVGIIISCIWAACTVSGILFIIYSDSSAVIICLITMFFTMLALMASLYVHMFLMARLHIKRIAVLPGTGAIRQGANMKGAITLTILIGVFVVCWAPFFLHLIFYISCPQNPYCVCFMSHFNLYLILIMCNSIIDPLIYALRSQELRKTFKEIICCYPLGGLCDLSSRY
Procedure: as §1, §2, §3, §4, §5, §6, §7

Human δ-opioid (DOP) = biological target: T5, Human δ-opioid (DOP) (Homo sapiens, UniProt P41143); assay: Radioligand binding, human δ-opioid (DOP) membranes, FlashPlate, [3H]-Bremazocine; conditions: compound at 10 μM; [3H]-Bremazocine
T5 construct: purchased Perkin Elmer Biosignal
T5 sequence (P41143 whole entry): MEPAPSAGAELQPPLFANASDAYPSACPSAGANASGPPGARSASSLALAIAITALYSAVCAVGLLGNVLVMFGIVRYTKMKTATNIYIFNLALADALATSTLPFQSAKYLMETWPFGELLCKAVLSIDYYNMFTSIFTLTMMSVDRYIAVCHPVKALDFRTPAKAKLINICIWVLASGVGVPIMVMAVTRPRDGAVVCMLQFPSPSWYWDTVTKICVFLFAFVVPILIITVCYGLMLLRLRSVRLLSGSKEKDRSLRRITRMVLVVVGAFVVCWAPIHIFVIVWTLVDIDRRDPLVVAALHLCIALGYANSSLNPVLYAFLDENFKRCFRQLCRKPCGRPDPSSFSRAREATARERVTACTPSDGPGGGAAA
Procedure: as §1, §2, §3, §4, §5, §6, §7

Human neurokinin (NK1) = biological target: T6, Human neurokinin (NK1) (Homo sapiens, UniProt P25103); assay: Radioligand binding, human neurokinin NK1 membranes, filtration, [125I]-Substance P; conditions: compound at 10 μM; [125I]-Substance P
T6 construct: purchased Perkin Elmer Biosignal
T6 sequence (P25103 whole entry): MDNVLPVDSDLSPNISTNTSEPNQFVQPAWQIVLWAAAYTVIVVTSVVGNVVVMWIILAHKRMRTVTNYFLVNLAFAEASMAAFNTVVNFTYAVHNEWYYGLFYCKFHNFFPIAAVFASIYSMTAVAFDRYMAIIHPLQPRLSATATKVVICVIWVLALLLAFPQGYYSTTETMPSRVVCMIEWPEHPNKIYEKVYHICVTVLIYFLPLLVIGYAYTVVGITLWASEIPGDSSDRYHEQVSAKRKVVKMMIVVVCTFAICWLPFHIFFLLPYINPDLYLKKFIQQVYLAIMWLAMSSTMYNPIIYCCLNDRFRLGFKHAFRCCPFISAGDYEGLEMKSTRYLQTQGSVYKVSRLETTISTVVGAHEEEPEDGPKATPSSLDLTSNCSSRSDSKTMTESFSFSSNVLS
Procedure: as §1, §2, §3, §8, §5, §9, §7

Human opioid (ORL1) = biological target: T7, Human opioid (ORL1) (Homo sapiens, UniProt P41146); assay: Radioligand binding, human opioid ORL1 membranes, FlashPlate, [125I]-Nociceptin; conditions: compound at 10 μM; [125I]-Nociceptin
T7 construct: purchased Perkin Elmer Biosignal
T7 sequence (P41146 whole entry): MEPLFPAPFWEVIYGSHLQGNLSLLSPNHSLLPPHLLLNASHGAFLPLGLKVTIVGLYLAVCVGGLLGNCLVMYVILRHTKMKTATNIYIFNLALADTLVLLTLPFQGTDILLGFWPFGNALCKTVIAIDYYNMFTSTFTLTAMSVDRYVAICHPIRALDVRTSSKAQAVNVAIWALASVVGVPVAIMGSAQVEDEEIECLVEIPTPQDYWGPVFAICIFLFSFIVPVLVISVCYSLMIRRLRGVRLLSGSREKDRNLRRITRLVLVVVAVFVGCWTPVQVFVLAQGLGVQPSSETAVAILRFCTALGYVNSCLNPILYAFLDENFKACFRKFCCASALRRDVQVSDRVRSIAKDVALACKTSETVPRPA
Procedure: as §1, §2, §3, §4, §5, §6, §7

Human μ-opioid (MOP) = biological target: T8, Human μ-opioid (MOP) (Homo sapiens, UniProt P35372); assay: Radioligand binding, human μ-opioid (MOP) membranes, FlashPlate, [3H]-Naloxone; conditions: compound at 10 μM; [3H]-Naloxone
T8 construct: purchased Perkin Elmer Biosignal
T8 sequence (P35372 whole entry): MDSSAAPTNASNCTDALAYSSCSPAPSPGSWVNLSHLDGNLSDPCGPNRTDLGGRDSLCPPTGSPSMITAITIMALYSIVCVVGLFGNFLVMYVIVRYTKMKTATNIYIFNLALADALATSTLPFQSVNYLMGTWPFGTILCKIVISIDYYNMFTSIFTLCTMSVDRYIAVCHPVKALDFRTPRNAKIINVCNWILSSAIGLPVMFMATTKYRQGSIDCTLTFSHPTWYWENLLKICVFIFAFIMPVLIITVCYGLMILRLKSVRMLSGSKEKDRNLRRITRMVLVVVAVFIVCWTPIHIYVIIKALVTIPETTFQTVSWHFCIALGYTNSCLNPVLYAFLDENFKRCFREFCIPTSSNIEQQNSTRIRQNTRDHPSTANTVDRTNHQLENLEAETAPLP
Procedure: as §1, §2, §3, §4, §5, §6, §7

Human Melanocortin (MC3) = biological target: T9, Human Melanocortin (MC3) (Homo sapiens, UniProt P41968); assay: Radioligand binding, human melanocortin MC3 membranes, FlashPlate, [125I]-NDP-αMSH; conditions: compound at 10 μM, [125I]-NDP-αMSH
T9 construct: purchased Perkin Elmer Biosignal
T9 sequence (P41968 whole entry): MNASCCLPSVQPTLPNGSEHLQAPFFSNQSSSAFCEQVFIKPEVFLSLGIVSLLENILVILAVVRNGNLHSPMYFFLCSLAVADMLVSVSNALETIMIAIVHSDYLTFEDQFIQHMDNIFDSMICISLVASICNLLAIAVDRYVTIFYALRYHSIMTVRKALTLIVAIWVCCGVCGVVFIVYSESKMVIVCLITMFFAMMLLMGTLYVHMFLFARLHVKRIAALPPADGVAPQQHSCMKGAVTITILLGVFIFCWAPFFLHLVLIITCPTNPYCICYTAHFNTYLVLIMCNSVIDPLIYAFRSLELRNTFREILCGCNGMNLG
Procedure: as §1, §2, §3, §4, §5, §6, §7

[2] = biological target: T10, Human melanin-concentrating hormone (MCH1) (Homo sapiens, UniProt Q99705); assay: Radioligand binding, human melanin-concentrating hormone MCH1 membranes, FlashPlate, [125I]-S36057; conditions: compound at 10 μM; [125I]-S36057
T10 construct: purchased Perkin Elmer Biosignal
T10 sequence (Q99705 whole entry): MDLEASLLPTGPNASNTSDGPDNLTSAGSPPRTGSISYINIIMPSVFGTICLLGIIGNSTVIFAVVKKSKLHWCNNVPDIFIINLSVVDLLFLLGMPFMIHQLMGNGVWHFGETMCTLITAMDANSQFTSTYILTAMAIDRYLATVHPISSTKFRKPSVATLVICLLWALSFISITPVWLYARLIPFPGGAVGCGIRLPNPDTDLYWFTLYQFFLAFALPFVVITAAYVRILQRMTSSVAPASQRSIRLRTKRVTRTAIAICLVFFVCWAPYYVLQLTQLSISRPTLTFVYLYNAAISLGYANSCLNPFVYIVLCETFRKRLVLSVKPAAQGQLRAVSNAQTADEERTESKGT
Procedure: as §1, §2, §3, §4, §5, §6, §7

Human melanocortin (MC5) = biological target: T11, Human melanocortin (MC5) (Homo sapiens, UniProt P33032); assay: Radioligand binding, human melanocortin MC5 membranes, FlashPlate, [125I]-NDP-αMSH; conditions: compound at 10 μM; [125I]-NDP-αMSH
T11 construct: purchased Perkin Elmer Biosignal
T11 sequence (P33032 whole entry): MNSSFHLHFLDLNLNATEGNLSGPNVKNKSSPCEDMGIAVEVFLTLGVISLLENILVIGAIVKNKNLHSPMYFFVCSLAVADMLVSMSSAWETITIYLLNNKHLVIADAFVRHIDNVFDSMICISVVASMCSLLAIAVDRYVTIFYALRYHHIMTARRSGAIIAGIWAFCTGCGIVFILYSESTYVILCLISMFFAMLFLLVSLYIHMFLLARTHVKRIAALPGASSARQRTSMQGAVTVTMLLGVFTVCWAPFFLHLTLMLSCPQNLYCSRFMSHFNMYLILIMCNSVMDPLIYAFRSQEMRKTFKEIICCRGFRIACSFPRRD
Procedure: as §1, §2, §3, §4, §5, §6, §7

| SMILES | A9: inhibition of radioligand binding, human neuropeptide Y (NPY-Y1) [1] | A11: inhibition of radioligand binding, mouse urotensin (mUR2) (Mouse urotensin (mUR2)) | A2: inhibition of radioligand binding, human κ-opioid (KOP) (Human κ-Opioid (KOP)) | A4: inhibition of radioligand binding, human melanocortin (MC4) (Human Melanocortin (MC4)) | A1: inhibition of radioligand binding, human δ-opioid (DOP) (Human δ-opioid (DOP)) | A8: inhibition of radioligand binding, human neurokinin (NK1) (Human neurokinin (NK1)) | A10: inhibition of radioligand binding, human opioid (ORL1) (Human opioid (ORL1)) | A7: inhibition of radioligand binding, human μ-opioid (MOP) (Human μ-opioid (MOP)) | A3: inhibition of radioligand binding, human melanocortin (MC3) (Human Melanocortin (MC3)) | A6: inhibition of radioligand binding, human melanin-concentrating hormone (MCH1) [2] | A5: inhibition of radioligand binding, human melanocortin (MC5) (Human melanocortin (MC5)) | A2: inhibition of radioligand binding, human κ-opioid (KOP) (Human κ-Opioid (KOP); 10 µM) | A4: inhibition of radioligand binding, human melanocortin (MC4) (Human Melanocortin (MC4); 10 µM) | A3: inhibition of radioligand binding, human melanocortin (MC3) (Human Melanocortin (MC3); 10 µM) |
| --- | --- | --- | --- | --- | --- | --- | --- | --- | --- | --- | --- | --- | --- | --- |
| NCCC(=O)NC1COC(COCc2ccc(-c3ccccc3)cc2)C(O)C1OCc1ccc(Cl)cc1 (stereo not shown) [compound 544] | − (“−” indicates less than 50% inhibition at 10 μM) | − (“−” indicates less than 50% inhibition at 10 μM) | + (“+” indicates greater than 50% inhibition at 10 μM) | − (“−” indicates less than 50% inhibition at 10 μM) | − (“−” indicates less than 50% inhibition at 10 μM) | + (“+” indicates greater than 50% inhibition at 10 μM) | − (“−” indicates less than 50% inhibition at 10 μM) | − (“−” indicates less than 50% inhibition at 10 μM) | + (“+” indicates greater than 50% inhibition at 10 μM) | − (“−” indicates less than 50% inhibition at 10 μM) | − (“−” indicates less than 50% inhibition at 10 μM) |  |  |  |
| N=C(N)NCCC(=O)N[C@H]1C(OCc2ccc(Cl)cc2)O[C@H](COCc2ccc(Cl)cc2)[C@@H](O)[C@@H]1OCc1ccc(Cl)cc1 (stereo partly shown) [compound 527] | − (“−” indicates less than 50% inhibition at 10 μM) | − (“−” indicates less than 50% inhibition at 10 μM) |  |  | − (“−” indicates less than 50% inhibition at 10 μM) | + (“+” indicates greater than 50% inhibition at 10 μM) | − (“−” indicates less than 50% inhibition at 10 μM) | − (“−” indicates less than 50% inhibition at 10 μM) |  | + (“+” indicates greater than 50% inhibition at 10 μM) | + (“+” indicates greater than 50% inhibition at 10 μM) | + (“+” indicates greater than 50% inhibition at 10 μM) | + (“+” indicates greater than 50% inhibition at 10 μM) | + (“+” indicates greater than 50% inhibition at 10 μM) |
